Where two headings read alike, the source gives them in different places.
Molecular target: BRAF V600E (Homo sapiens, UniProt P15056, V600E)
Assay: HiBiT cellular BRAF^V600E degradation assay
Assay type: cell-based
Conditions: for DC50: concentration at which 50% of total cellular BRAF^V600E is degraded; for Emax: read-out: HiBit 24 h Emax
[1] = A375.10 cells, 24 h, residual protein remaining in the cell

Chain of BRAF V600E (P15056 whole entry V600E): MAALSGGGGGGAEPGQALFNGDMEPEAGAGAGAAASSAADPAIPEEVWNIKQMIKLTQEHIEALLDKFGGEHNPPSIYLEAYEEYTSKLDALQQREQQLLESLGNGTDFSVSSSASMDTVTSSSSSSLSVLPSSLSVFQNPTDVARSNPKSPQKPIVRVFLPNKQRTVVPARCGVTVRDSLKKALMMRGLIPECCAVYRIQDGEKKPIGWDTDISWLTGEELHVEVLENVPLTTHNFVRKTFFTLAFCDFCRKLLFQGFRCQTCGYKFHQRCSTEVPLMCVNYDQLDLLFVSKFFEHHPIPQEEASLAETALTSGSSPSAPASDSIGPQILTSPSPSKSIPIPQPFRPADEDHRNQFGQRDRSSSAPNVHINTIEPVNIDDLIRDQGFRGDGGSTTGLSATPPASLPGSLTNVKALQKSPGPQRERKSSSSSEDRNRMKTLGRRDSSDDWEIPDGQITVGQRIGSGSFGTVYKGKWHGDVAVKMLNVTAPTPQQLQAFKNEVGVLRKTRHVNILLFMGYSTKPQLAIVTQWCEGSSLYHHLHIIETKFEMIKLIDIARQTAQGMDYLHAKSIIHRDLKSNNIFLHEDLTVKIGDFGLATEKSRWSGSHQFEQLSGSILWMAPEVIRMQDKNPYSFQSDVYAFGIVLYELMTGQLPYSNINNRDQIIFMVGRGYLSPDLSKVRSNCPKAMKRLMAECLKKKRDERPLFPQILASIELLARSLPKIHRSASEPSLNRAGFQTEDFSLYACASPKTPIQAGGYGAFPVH

Row | DC50 (A375.10 cells, 24 h) [µM] | Emax [1] [%] | SMILES | Emax [%]
1 | 0.0195 | 10.8 | CCN(C)S(=O)(=O)Nc1ccc(F)c(Oc2ccc3ncn(C4COC5(CCN(C(=O)CN6CCC(c7ccc(NC8CCC(=O)NC8=O)cc7F)CC6)CC5)C4)c(=O)c3c2)c1C#N (stereo not drawn) [Example 24, 3-[6-[2-cyano-3-[[ethyl(methyl)sulfamoyl]amino]-6-fluorophenoxy]-4-oxoquinazolin-3-yl]-8-[2-[4-[4-[(2,6-dioxopiperidin-3-yl)amino]-2-fluorophenyl]piperidin-1-yl]acetyl]-1-oxa-8-azaspiro[4.5]decane] | –
2 | 0.0229 | 10.2 | CCN(C)S(=O)(=O)Nc1ccc(F)c(Oc2ccc3ncn(C4CCC5(CCN(C(=O)CN6CCC(c7ccc(NC8CCC(=O)NC8=O)cc7F)CC6)CC5)C4)c(=O)c3c2)c1C#N (stereo not drawn) [Example 28, 6-[2-cyano-3-[[ethyl(methyl)sulfamoyl]amino]-6-fluorophenoxy]-3-[8-[2-[4-[4-[(2,6-dioxopiperidin-3-yl)amino]-2-fluorophenyl]piperidin-1-yl]acetyl]-8-azaspiro[4.5]decan-3-yl]-4-oxoquinazoline] | –
3 | 0.0337 | 12.1 | CCN(C)S(=O)(=O)Nc1ccc(F)c(Oc2ccc3ncn(C4CCOC5(CCN(C(=O)CN6CCC(c7ccc(NC8CCC(=O)NC8=O)cc7F)CC6)CC5)C4)c(=O)c3c2)c1C#N (stereo not drawn) [Example 29, 4-[6-[2-cyano-3-[[ethyl(methyl)sulfamoyl]amino]-6-fluorophenoxy]-4-oxoquinazolin-3-yl]-9-[2-[4-[4-[(2,6-dioxopiperidin-3-yl)amino]-2-fluorophenyl]piperidin-1-yl]acetyl]-1-oxa-9-azaspiro[5.5]undecane] | –
4 | 0.0164 | 12.1 | CCN(C)S(=O)(=O)Nc1ccc(F)c(Oc2ccc3ncn(C4CCC5(CC4)CCN(C(=O)CN4CCC(c6ccc(NC7CCC(=O)NC7=O)cc6F)CC4)CC5)c(=O)c3c2)c1C#N (stereo not drawn) [Example 30, 9-[6-[2-cyano-3-[[ethyl(methyl)sulfamoyl]amino]-6-fluorophenoxy]-4-oxoquinazolin-3-yl]-3-[2-[4-[4-[(2,6-dioxopiperidin-3-yl)amino]-2-fluorophenyl]piperidin-1-yl]acetyl]-3-azaspiro[5.5]undecane] | –
5 | 0.0403 | 11.4 | CCN(C)S(=O)(=O)Nc1ccc(F)c(Oc2ccc3ncn(C4CCC5(CC4)CCN(C(=O)CN4CCC(c6ccc(NC7CCC(=O)NC7=O)cc6F)CC4)C5)c(=O)c3c2)c1C#N (stereo not drawn) [Example 32, 6-[2-cyano-3-[[ethyl(methyl)sulfamoyl]amino]-6-fluorophenoxy]-3-[2-[2-[4-[4-[(2,6-dioxopiperidin-3-yl)amino]-2-fluorophenyl]piperidin-1-yl]acetyl]-2-azaspiro[4.5]decan-8-yl]-4-oxoquinazoline] | –
6 | 0.0221 | 8.88 | CCN(C)S(=O)(=O)Nc1ccc(F)c(Oc2ccc3ncn([C@H]4COC5(CCN(C(=O)CN6CCC(c7ccc(N[C@@H]8CCC(=O)NC8=O)cc7F)CC6)CC5)C4)c(=O)c3c2)c1C#N [Example 42, (3R)-3-[6-[2-cyano-3-[[ethyl(methyl)sulfamoyl]amino]-6-fluorophenoxy]-4-oxoquinazolin-3-yl]-8-[2-[4-[4-[[(3R)-2,6-dioxopiperidin-3-yl]amino]-2-fluorophenyl]piperidin-1-yl]acetyl]-1-oxa-8-azaspiro[4.5]decane] | –
7 | 0.0237 | 9.95 | CCN(C)S(=O)(=O)Nc1ccc(F)c(Oc2ccc3ncn([C@H]4COC5(CCN(C(=O)CN6CCC(c7ccc(N[C@H]8CCC(=O)NC8=O)cc7F)CC6)CC5)C4)c(=O)c3c2)c1C#N [Example 43, (3R)-3-[6-[2-cyano-3-[[ethyl(methyl)sulfamoyl]amino]-6-fluorophenoxy]-4-oxoquinazolin-3-yl]-8-[2-[4-[4-[[(3S)-2,6-dioxopiperidin-3-yl]amino]-2-fluorophenyl]piperidin-1-yl]acetyl]-1-oxa-8-azaspiro[4.5]decane] | –
8 | 0.0251 | 14.4 | CCN(C)S(=O)(=O)Nc1ccc(F)c(Oc2ccc3ncn([C@@H]4CCC5(CCN(C(=O)CN6CCC(c7ccc(N[C@@H]8CCC(=O)NC8=O)cc7F)CC6)CC5)C4)c(=O)c3c2)c1C#N [Example 44, 6-[2-cyano-3-[[ethyl(methyl)sulfamoyl]amino]-6-fluorophenoxy]-3-[(3R)-8-[2-[4-[4-[[(3R)-2,6-dioxopiperidin-3-yl]amino]-2-fluorophenyl]piperidin-1-yl]acetyl]-8-azaspiro[4.5]decan-3-yl]-4-oxoquinazoline] | –

Second part, the compound before the results:

Row | SMILES | DC50 (A375.10 cells, 24 h) [µM] | Emax [1] [%] | Emax [%]
9 | CCN(C)S(=O)(=O)Nc1ccc(F)c(Oc2ccc3ncn(C4CC5(CCN(C(=O)CC6(O)CCN(c7ccc(NC8CCC(=O)NC8=O)cc7F)CC6)CC5)C4)c(=O)c3c2)c1C#N (stereo not drawn) [Example 23, 6-[2-cyano-3-[[ethyl(methyl)sulfamoyl]amino]-6-fluorophenoxy]-3-[7-[2-[1-[4-[(2,6-dioxopiperidin-3-yl)amino]-2-fluorophenyl]-4-hydroxypiperidin-4-yl]acetyl]-7-azaspiro [3.5]nonan-2-yl]-4-oxoquinazoline] | 0.0193 | 21.7 | –
10 | CCN(C)S(=O)(=O)Nc1ccc(F)c(Oc2ccc3ncn(C4C5CN(C(=O)CN6CCC(c7ccc(NC8CCC(=O)NC8=O)cc7F)CC6)CC54)c(=O)c3c2)c1C#N (stereo not drawn) [Example 25, 6-[2-cyano-3-[[ethyl(methyl)sulfamoyl]amino]-6-fluorophenoxy]-3-[3-[2-[4-[4-[(2,6-dioxopiperidin-3-yl)amino]-2-fluorophenyl]piperidin-1-yl]acetyl]-3-azabicyclo[3.1.0]hexan-6-yl]-4-oxoquinazoline] | 0.0348 | 11.9 | –
11 | CCN(C)S(=O)(=O)Nc1cccc(Oc2ccc3ncn(C4CC5(CCN(C(=O)CN6CCC(c7ccc(NC8CCC(=O)NC8=O)cc7F)CC6)CC5)C4)c(=O)c3c2)c1C#N (stereo not drawn) [Example 26, 6-[2-cyano-3-[[ethyl(methyl)sulfamoyl]amino]phenoxy]-3-[7-[2-[4-[4-[(2,6-dioxopiperidin-3-yl)amino]-2-fluorophenyl]piperidin-1-yl]acetyl]-7-azaspiro[3.5]nonan-2-yl]-4-oxoquinazoline] | 0.00849 | 10 | –
12 | CCN(C)S(=O)(=O)Nc1ccc(F)c(Oc2ccc3ncn(C4COC5(CCN(C(=O)CC6(O)CCN(c7ccc(NC8CCC(=O)NC8=O)cc7F)CC6)CC5)C4)c(=O)c3c2)c1C#N (stereo not drawn) [Example 27, 3-[6-[2-cyano-3-[[ethyl(methyl)sulfamoyl]amino]-6-fluorophenoxy]-4-oxoquinazolin-3-yl]-8-[2-[1-[4-[(2,6-dioxopiperidin-3-yl)amino]-2-fluorophenyl]-4-hydroxypiperidin-4-yl]acetyl]-1-oxa-8-azaspiro[4.5]decane] | 0.015 | 22.2 | –
13 | CCN(C)S(=O)(=O)Nc1ccc(F)c(Oc2ccc3ncn(CC4CC5(CCN(C(=O)CN6CCC(c7ccc(NC8CCC(=O)NC8=O)cc7F)CC6)CC5)C4)c(=O)c3c2)c1C#N (stereo not drawn) [Example 31, 6-[2-cyano-3-[[ethyl(methyl)sulfamoyl]amino]-6-fluorophenoxy]-3-[[7-[2-[4-[4-[(2,6-dioxopiperidin-3-yl)amino]-2-fluorophenyl]piperidin-1-yl]acetyl]-7-azaspiro[3.5]nonan-2-yl]methyl]-4-oxoquinazoline] | 0.0469 | 11.6 | –
14 | CCN(C)S(=O)(=O)Nc1ccc(F)c(Oc2ccc3ncn([C@H]4[C@@H]5CN(c6ccc(C(=O)NC7CCN(c8ccc(NC9CCC(=O)NC9=O)cc8F)CC7)cc6)C[C@@H]54)c(=O)c3c2)c1C#N (stereo partly drawn) [Example 35, 4-[6-[6-[2-cyano-3-[[ethyl(methyl)sulfamoyl]amino]-6-fluorophenoxy]-4-oxoquinazolin-3-yl]-3-azabicyclo[3.1.0]hexan-3-yl]-N-[1-[4-[(2,6-dioxopiperidin-3-yl)amino]-2-fluorophenyl]piperidin-4-yl]benzamide] | 0.00682 | 13.6 | –
15 | CCN(C)S(=O)(=O)Nc1ccc(F)c(Oc2ccc3ncn(CC4COC5(CCN(C(=O)CN6CCC(c7ccc(NC8CCC(=O)NC8=O)cc7F)CC6)CC5)C4)c(=O)c3c2)c1C#N (stereo not drawn) [Example 36, 3-[[6-[2-cyano-3-[[ethyl(methyl)sulfamoyl]amino]-6-fluorophenoxy]-4-oxoquinazolin-3-yl]methyl]-8-[2-[4-[4-[(2,6-dioxopiperidin-3-yl)amino]-2-fluorophenyl]piperidin-1-yl]acetyl]-1-oxa-8-azaspiro[4.5]decane] | 0.0513 | 10.3 | –
16 | CCN(C)S(=O)(=O)Nc1ccc(F)c(Oc2ccc3ncn(C4CC5(CCN(C(=O)NC6CCN(c7ccc(NC8CCC(=O)NC8=O)cc7F)CC6)CC5)C4)c(=O)c3c2)c1C#N (stereo not drawn) [Example 37, 2-[6-[2-cyano-3-[[ethyl(methyl)sulfamoyl]amino]-6-fluorophenoxy]-4-oxoquinazolin-3-yl]-N-[1-[4-[(2,6-dioxopiperidin-3-yl)amino]-2-fluorophenyl]piperidin-4-yl]-7-azaspiro[3.5]nonane-7-carboxamide] | 0.0484 | – | 16.2
17 | CCN(C)S(=O)(=O)Nc1ccc(F)c(Oc2ccc3ncn(C4COC5(CCN(C(=O)NC6CCN(c7ccc(NC8CCC(=O)NC8=O)cc7F)CC6)CC5)C4)c(=O)c3c2)c1C#N (stereo not drawn) [Example 38, 3-[6-[2-cyano-3-[[ethyl(methyl)sulfamoyl]amino]-6-fluorophenoxy]-4-oxoquinazolin-3-yl]-N-[1-[4-[(2,6-dioxopiperidin-3-yl)amino]-2-fluorophenyl]piperidin-4-yl]-1-oxa-8-azaspiro[4.5]decane-8-carboxamide] | 0.036 | – | 11.4
18 | CCN(C)S(=O)(=O)Nc1ccc(F)c(Oc2ccc3ncn(C4CC5(CCN(C(=O)[C@H]6C[C@H](N7CC(c8ccc(NC9CCC(=O)NC9=O)cc8F)C7)C6)CC5)C4)c(=O)c3c2)c1C#N (stereo partly drawn) [Example 39, 6-[2-cyano-3-[[ethyl(methyl)sulfamoyl]amino]-6-fluorophenoxy]-3-[7-[3-[3-[4-[(2,6-dioxopiperidin-3-yl)amino]-2-fluorophenyl]azetidin-1-yl]cyclobutanecarbonyl]-7-azaspiro[3.5]nonan-2-yl]-4-oxoquinazoline] | 0.0275 | 15.7 | –

From patent US12486253B2, “Therapeutics for the degradation of mutant BRAF” (C4 THERAPEUTICS, INC., priority 2021, dated 2025)
